Measured values as given in patent US20250282794A1 (CURADEV PHARMA LTD, priority 2022, published 2025).

target: recombinant full length HPK-1 enzyme (Homo sapiens (Human), UniProt Q92918); experiment: HPK-1 biochemical enzyme assay (ADP-Glo kinase inhibition); conditions: recombinant full length HPK-1 6.8 nM, 10 μM ATP, 12.5 μM MBP, 30 mins at 25° C.
Summary of the method: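 ADP-Glo readout of ADP formed after a 30 min, 25° C. reaction of 6.8 nM full-length HPK-1 with swine myelin basic protein (12.5 μM) and ATP (10 μM) in Tris pH 7.4 buffer with MgCl2, DTT and BSA. Ten compound concentrations tested; percent inhibition set against vehicle (0%) and no-enzyme (100%) controls gave IC50.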

Chain of recombinant full length HPK-1 enzyme (Q92918 whole entry, species assumed): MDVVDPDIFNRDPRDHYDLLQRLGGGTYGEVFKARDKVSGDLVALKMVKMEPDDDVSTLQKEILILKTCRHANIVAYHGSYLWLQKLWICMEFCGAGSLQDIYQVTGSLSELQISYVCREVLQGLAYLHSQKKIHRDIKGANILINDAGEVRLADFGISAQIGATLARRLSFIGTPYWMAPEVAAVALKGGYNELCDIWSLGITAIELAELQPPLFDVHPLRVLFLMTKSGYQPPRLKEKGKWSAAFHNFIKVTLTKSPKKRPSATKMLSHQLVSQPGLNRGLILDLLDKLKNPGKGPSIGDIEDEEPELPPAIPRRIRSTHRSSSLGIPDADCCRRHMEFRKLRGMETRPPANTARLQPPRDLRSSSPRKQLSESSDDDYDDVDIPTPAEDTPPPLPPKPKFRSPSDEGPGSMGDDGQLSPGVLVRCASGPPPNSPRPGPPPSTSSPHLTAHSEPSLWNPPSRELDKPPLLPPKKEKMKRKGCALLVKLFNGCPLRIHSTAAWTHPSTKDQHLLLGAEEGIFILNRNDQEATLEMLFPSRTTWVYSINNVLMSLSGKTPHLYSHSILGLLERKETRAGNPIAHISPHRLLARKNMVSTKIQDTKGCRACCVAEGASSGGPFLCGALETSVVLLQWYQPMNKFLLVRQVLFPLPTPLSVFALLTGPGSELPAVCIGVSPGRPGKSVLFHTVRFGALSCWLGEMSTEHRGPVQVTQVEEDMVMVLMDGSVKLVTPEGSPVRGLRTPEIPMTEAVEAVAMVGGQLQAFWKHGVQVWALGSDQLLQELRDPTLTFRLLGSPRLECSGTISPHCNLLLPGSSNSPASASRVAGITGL

Structure (SMILES)	IC50 [µM]
Cc1c(Nc2cc[nH]c(=O)c2C(=O)Nc2ccc(N3CCCC3CO)cc2)cnc2c1NCCO2 (centres unmarked) [Example 397, N-(4-(2-(hydroxymethyl)pyrrolidin-1-yl)phenyl)-4-((8-methyl-2,3-dihydro-1H-pyrido[2,3-b][1,4]oxazin-7-yl)amino)-2-oxo-1,2-dihydropyridine-3-carboxamide]	0.01 to 0.1
Cc1c(Nc2cc[nH]c(=O)c2C(=O)Nc2ccc(N3CCC(O)C3)cc2)cnc2c1NCCO2 (centres unmarked) [Example 398, N-(4-(3-hydroxypyrrolidin-1-yl)phenyl)-4-((8-methyl-2,3-dihydro-1H-pyrido[2,3-b][1,4]oxazin-7-yl)amino)-2-oxo-1,2-dihydropyridine-3-carboxamide]	0.01 to 0.1
CCCN1CCN(c2ccc(NC(=O)c3c(Nc4cnc5c(c4C)NCCO5)cc[nH]c3=O)cc2)CC1 [Example 399, 4-((8-methyl-2,3-dihydro-1H-pyrido[2,3-b][1,4]oxazin-7-yl)amino)-2-oxo-N-(4-(4-propylpiperazin-1-yl)phenyl)-1,2-dihydropyridine-3-carboxamide]	≤ 0.01
Cc1cc(NC(=O)c2c(Nc3cnc4c(c3C)NCCO4)cc[nH]c2=O)ccc1N1CCN(C2CC2)CC1 [Example 400, N-(4-(4-cyclopropylpiperazin-1-yl)-3-methylphenyl)-4-((8-methyl-2,3-dihydro-1H-pyrido[2,3-b][1,4]oxazin-7-yl)amino)-2-oxo-1,2-dihydropyridine-3-carboxamide]	0.01 to 0.1
CCOc1cc(NC(=O)c2c(Nc3cnc4c(c3C)NCCO4)cc[nH]c2=O)ccc1N1CCN(C2CC2)CC1 [Example 401, N-(4-(4-cyclopropylpiperazin-1-yl)-3-ethoxyphenyl)-4-((8-methyl-2,3-dihydro-1H-pyrido[2,3-b][1,4]oxazin-7-yl)amino)-2-oxo-1,2-dihydropyridine-3-carboxamide]	0.01 to 0.1
CC(=O)N1CCN(c2ccc(NC(=O)c3c(Nc4cnc5c(c4C)NCCO5)cc[nH]c3=O)cc2)CC1 [Example 402, N-(4-(4-acetylpiperazin-1-yl)phenyl)-4-((8-methyl-2,3-dihydro-1H-pyrido[2,3-b][1,4]oxazin-7-yl)amino)-2-oxo-1,2-dihydropyridine-3-carboxamide]	0.01 to 0.1
Cc1c(Nc2cc[nH]c(=O)c2C(=O)Nc2ccc(N3CCN(C(=O)CCO)CC3)cc2)cnc2c1NCCO2 [Example 403, N-(4-(4-(3-hydroxypropanoyl)piperazin-1-yl)phenyl)-4-((8-methyl-2,3-dihydro-1H-pyrido[2,3-b][1,4]oxazin-7-yl)amino)-2-oxo-1,2-dihydropyridine-3-carboxamide]	≤ 0.01
Cc1c(Nc2cc[nH]c(=O)c2C(=O)Nc2ccc(N3CCN(C(C)C)CC3)cc2)cnc2c1NCC(C)O2 (centres unmarked) [Example 404, 4-((3,8-dimethyl-2,3-dihydro-1H-pyrido[2,3-b][1,4]oxazin-7-yl)amino)-N-(4-(4-isopropylpiperazin-1-yl)phenyl)-2-oxo-1,2-dihydropyridine-3-carboxamide]	≤ 0.01
Cc1c(Nc2cc[nH]c(=O)c2C(=O)Nc2ccc(N3CCN(C(C)C)CC3)cc2)cnc2c1NCC(C)O2 (centres unmarked) [Example 405, 4-((3,8-dimethyl-2,3-dihydro-1H-pyrido[2,3-b][1,4]oxazin-7-yl)amino)-N-(4-(4-isopropylpiperazin-1-yl)phenyl)-2-oxo-1,2-dihydropyridine-3-carboxamide]	0.01 to 0.1
COCCCN1CCN(c2ccc(NC(=O)c3c(Nc4cnc5c(c4C)NCC(C)O5)cc[nH]c3=O)cc2)CC1 (centres unmarked) [Example 406, 4-((3,8-dimethyl-2,3-dihydro-1H-pyrido[2,3-b][1,4]oxazin-7-yl)amino)-N-(4-(4-(3-methoxypropyl)piperazin-1-yl)phenyl)-2-oxo-1,2-dihydropyridine-3-carboxamide]	0.01 to 0.1
Cc1c(Nc2cc[nH]c(=O)c2C(=O)Nc2ccc(N3CCN(c4ccn(C)n4)CC3)cc2)cnc2c1NCC(C)O2 (centres unmarked) [Example 407, 4-((3,8-dimethyl-2,3-dihydro-1H-pyrido[2,3-b][1,4]oxazin-7-yl)amino)-N-(4-(4-(1-methyl-1H-pyrazol-3-yl)piperazin-1-yl)phenyl)-2-oxo-1,2-dihydropyridine-3-carboxamide]	0.01 to 0.1
Cc1c(Nc2cc[nH]c(=O)c2C(=O)Nc2ccc(N3CCN(C)CC3CO)cc2)cnc2c1NCCO2 (centres unmarked) [Example 408, N-(4-(2-(hydroxymethyl)-4-methylpiperazin-1-yl)phenyl)-4-((8-methyl-2,3-dihydro-1H-pyrido[2,3-b][1,4]oxazin-7-yl)amino)-2-oxo-1,2-dihydropyridine-3-carboxamide]	0.01 to 0.1
Cc1c(Nc2cc[nH]c(=O)c2C(=O)Nc2cnn(CC(F)(F)F)c2)cnc2c1NCCO2 [Example 409, 4-((8-methyl-2,3-dihydro-1H-pyrido[2,3-b][1,4]oxazin-7-yl)amino)-2-oxo-N-(1-(2,2,2-trifluoroethyl)-1H-pyrazol-4-yl)-1,2-dihydropyridine-3-carboxamide]	0.01 to 0.1
Cc1c(Nc2cc[nH]c(=O)c2C(=O)Nc2ccc(N3CCN(c4cnn(C)c4)CC3)cc2)cnc2c1NCCO2 [Example 410, N-(4-(4-(1-methyl-1H-pyrazol-4-yl)piperazin-1-yl)phenyl)-4-((8-methyl-2,3-dihydro-1H-pyrido[2,3-b][1,4]oxazin-7-yl)amino)-2-oxo-1,2-dihydropyridine-3-carboxamide]	0.01 to 0.1
Cc1c(Nc2cc[nH]c(=O)c2C(=O)Nc2ccc(N3CCC(C4CC4)CC3)cc2)cnc2c1NCCO2 [Example 411, N-(4-(4-cyclopropylpiperidin-1-yl)phenyl)-4-((8-methyl-2,3-dihydro-1H-pyrido[2,3-b][1,4]oxazin-7-yl)amino)-2-oxo-1,2-dihydropyridine-3-carboxamide]	0.01 to 0.1
Cc1c(Nc2nc[nH]c(=O)c2C(=O)Nc2ccc(N3CCN(C(C)C)CC3)cc2)cnc2c1NCCO2 [Example 412, N-(4-(4-isopropylpiperazin-1-yl)phenyl)-4-((8-methyl-2,3-dihydro-1H-pyrido[2,3-b][1,4]oxazin-7-yl)amino)-6-oxo-1,6-dihydropyrimidine-5-carboxamide]	0.01 to 0.1
COCCN1CCN(c2ccc(NC(=O)c3c(Nc4cnc5c(c4C)NCCO5)nc[nH]c3=O)cc2)CC1 [Example 413, N-(4-(4-(2-methoxyethyl)-piperazin-1-yl)phenyl)-4-((8-methyl-2,3-dihydro-1H-pyrido[2,3-b][1,4]oxazin-7-yl)amino)-6-oxo-1,6-dihydropyrimidine-5-carboxamide]	0.01 to 0.1
